The values below come from the supplement of paper PMC10307832.

Holding throughout (assay): relative viability (nuclei count vs DMSO), 5 days (fraction); higher = more cells survive
Compound in the assay “Temozolomide + Lapatinib”: Cn1nnc2c(C(N)=O)ncn2c1=O [Temozolomide] + CS(=O)(=O)CCNCc1ccc(-c2ccc3ncnc(Nc4ccc(OCc5cccc(F)c5)c(Cl)c4)c3c2)o1 [Lapatinib] (partner 2 µM)
Put shortly: (§1)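 Relative viability equals treated-well nuclei counts divided by vehicle-well nuclei counts. Counts came from 4× images of lung cancer cell lines grown in 1536-well plates for 5 days after pin-tool dosing on the day after seeding. Dosing used one drug alone or a fixed anchor-drug dose plus five library-drug doses (not always all listed) in √10 steps, and values are medians of duplicate plates.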

Compound in assay [1]: Cn1nnc2c(C(N)=O)ncn2c1=O [Temozolomide] + C[C@@H](Oc1cc(-c2cnn(C3CCNCC3)c2)cnc1N)c1c(Cl)ccc(F)c1Cl [Crizotinib] (partner 1 µM)
In short, it runs like this: as §1

Compound in the assay “Temozolomide + Foretinib”: Cn1nnc2c(C(N)=O)ncn2c1=O [Temozolomide] + COc1cc2c(Oc3ccc(NC(=O)C4(C(=O)Nc5ccc(F)cc5)CC4)cc3F)ccnc2cc1OCCCN1CCOCC1 [Foretinib] (partner 0.25 µM)
Put shortly:
as §1

Compound in the assay “AZD5582 + Olaparib”: C[C@@H](C(=O)N[C@@H](C1CCCCC1)C(=O)N2CCC[C@H]2C(=O)N[C@@H]3[C@@H](CC4=CC=CC=C34)OCC#CC#CCO[C@@H]5CC6=CC=CC=C6[C@@H]5NC(=O)[C@@H]7CCCN7C(=O)[C@H](C8CCCCC8)NC(=O)[C@H](C)NC)NC [AZD5582] + O=C(c1cc(Cc2n[nH]c(=O)c3ccccc23)ccc1F)N1CCN(C(=O)C2CC2)CC1 [Olaparib] (partner 8 µM)
In short, it runs like this: as §1

As to NCI-H1703, the relative viability was determined as 1.39 with Temozolomide + Lapatinib (first compound 0.2 µM); 1.08 in the assay with Temozolomide + Lapatinib (first compound 0.6325 µM); 1.59 in the assay with Temozolomide + Lapatinib (first compound 2 µM); 0.972 with Temozolomide + Lapatinib (first compound 6.325 µM); 1.21 with Temozolomide + Lapatinib (first compound 20 µM); 0.746 in assay [1] (first compound 0.2 µM). In addition, the relative viability came out at 0.648 in assay [1] (first compound 0.6325 µM); 0.876 in assay [1] (first compound 2 µM); 0.8 in assay [1] (first compound 6.325 µM); 0.846 in assay [1] (first compound 20 µM); 0.297 with Temozolomide + Foretinib (first compound 0.2 µM); 0.35 with Temozolomide + Foretinib (first compound 0.6325 µM). The relative viability amounted to 0.401 with Temozolomide + Foretinib (first compound 2 µM); 0.281 with Temozolomide + Foretinib (first compound 6.325 µM); 0.374 with Temozolomide + Foretinib (first compound 20 µM); 0.413 with AZD5582 + Olaparib (first compound 0.005 µM); 0.487 in the assay with AZD5582 + Olaparib (first compound 0.01581 µM); 0.54 in the assay with AZD5582 + Olaparib (first compound 0.05 µM).
